Among the data in ChEMBL document CHEMBL5728361, “(S)-2-(1-cyclopropylethyl)-5-(4-methyl-2-((6-(2-oxopyrrolidin-1-yl)pyridin-2-yl)amino) thiazol-5-yl)-7-(methylsulfonyl)isoindolin-1-one as a phosphatidylinositol 3-kinase inhibitor” (2021) are IC50 values, retold here.

Assay [1] is described as follows: (§1) Enzymatic Activity Assay : The activity of recombinant human PI3Kγ ((aa144-1102)-6His) and PI3Kα, β, δ (6-His(p110-p85α)) was determined by measuring the ADP level after phosphorylation of DiC8-PIP2 using a commercially available ADP-Glo™ kit from Promega. The assay was carried out in white low volume 384 well plates in a final volume of 14 μl at R.T. The assay conditions contained the following: 50 mM Tris buffer pH 7.4, 2.1 mM DTT, 3 mM MgCl2, 0.05% CHAPS, 20 μM ATP, 80 μM DiC8-PIP2 and 1.2 nM PI3Kα, β, γ or 0.6 nM PI3Kδ. Potential inhibitors were made up in DMSO and then diluted in the assay to give a final concentration of not exceeding 1% (v/v) DMSO. […] Routinely, inhibitors were pre-incubated with 3 μl of enzyme for 15 min prior to the addition of 2 μl substrate mixture for a further 60 min enzyme reaction. The phosphorylation was stopped with the addition of 3 μl ADP-Glo™ reagent (stop solution) followed by a 40 min incubation. Prior to detection 6 μl of ADP-Glo™ Kinase Detection Reagent was added and the plates were read in a micro plate reader using a Luminescence filter. All additions were followed by a short centrifugation step. In general terms: ADP-Glo turns the ADP formed in a reaction into a luminescent signal.

Assay [2] addresses Phosphatidylinositol 4,5-bisphosphate 3-kinase catalytic subunit beta isoform (Homo sapiens, UniProt P42338). The assay is described as §1.
Assay [3] concerns the target T1, Phosphatidylinositol 4,5-bisphosphate 3-kinase catalytic subunit delta isoform (Homo sapiens, UniProt O00329).
T1 sequence (O00329 whole entry): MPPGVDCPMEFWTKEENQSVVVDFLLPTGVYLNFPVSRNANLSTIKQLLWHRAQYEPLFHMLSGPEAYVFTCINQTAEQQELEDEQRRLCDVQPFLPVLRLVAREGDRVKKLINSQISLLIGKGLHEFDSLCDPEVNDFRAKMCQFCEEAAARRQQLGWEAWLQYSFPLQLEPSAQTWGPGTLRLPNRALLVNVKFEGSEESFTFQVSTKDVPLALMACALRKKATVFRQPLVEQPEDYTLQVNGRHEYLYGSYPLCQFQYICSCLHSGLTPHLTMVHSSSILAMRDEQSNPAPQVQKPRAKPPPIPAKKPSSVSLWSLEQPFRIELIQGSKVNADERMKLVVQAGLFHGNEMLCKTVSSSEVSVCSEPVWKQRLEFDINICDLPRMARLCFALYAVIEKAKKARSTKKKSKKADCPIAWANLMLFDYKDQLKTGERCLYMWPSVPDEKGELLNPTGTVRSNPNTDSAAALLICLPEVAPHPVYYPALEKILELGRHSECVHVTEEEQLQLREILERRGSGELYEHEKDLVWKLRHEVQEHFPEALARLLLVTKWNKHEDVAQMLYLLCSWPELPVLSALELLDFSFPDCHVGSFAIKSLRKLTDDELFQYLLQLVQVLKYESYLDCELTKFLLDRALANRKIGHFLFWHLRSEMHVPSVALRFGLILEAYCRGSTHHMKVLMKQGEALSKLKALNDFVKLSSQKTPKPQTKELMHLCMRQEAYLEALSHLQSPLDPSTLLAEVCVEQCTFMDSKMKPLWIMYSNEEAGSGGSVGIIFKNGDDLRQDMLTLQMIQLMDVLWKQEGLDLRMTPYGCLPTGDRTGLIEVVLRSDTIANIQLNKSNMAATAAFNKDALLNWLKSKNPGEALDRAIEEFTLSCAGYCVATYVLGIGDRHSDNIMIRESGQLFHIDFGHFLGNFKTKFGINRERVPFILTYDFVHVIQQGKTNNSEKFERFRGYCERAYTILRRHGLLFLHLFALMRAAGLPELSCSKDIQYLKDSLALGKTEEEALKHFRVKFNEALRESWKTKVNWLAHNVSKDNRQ
Described as §1.

Assay [4] concerns the target Phosphatidylinositol 4,5-bisphosphate 3-kinase catalytic subunit alpha isoform (Homo sapiens, UniProt P42336). The description is as §1.

Molecules are shown by their SMILES.

Sequence of Phosphatidylinositol 4,5-bisphosphate 3-kinase catalytic subunit alpha isoform (P42336 whole entry, canonical isoform): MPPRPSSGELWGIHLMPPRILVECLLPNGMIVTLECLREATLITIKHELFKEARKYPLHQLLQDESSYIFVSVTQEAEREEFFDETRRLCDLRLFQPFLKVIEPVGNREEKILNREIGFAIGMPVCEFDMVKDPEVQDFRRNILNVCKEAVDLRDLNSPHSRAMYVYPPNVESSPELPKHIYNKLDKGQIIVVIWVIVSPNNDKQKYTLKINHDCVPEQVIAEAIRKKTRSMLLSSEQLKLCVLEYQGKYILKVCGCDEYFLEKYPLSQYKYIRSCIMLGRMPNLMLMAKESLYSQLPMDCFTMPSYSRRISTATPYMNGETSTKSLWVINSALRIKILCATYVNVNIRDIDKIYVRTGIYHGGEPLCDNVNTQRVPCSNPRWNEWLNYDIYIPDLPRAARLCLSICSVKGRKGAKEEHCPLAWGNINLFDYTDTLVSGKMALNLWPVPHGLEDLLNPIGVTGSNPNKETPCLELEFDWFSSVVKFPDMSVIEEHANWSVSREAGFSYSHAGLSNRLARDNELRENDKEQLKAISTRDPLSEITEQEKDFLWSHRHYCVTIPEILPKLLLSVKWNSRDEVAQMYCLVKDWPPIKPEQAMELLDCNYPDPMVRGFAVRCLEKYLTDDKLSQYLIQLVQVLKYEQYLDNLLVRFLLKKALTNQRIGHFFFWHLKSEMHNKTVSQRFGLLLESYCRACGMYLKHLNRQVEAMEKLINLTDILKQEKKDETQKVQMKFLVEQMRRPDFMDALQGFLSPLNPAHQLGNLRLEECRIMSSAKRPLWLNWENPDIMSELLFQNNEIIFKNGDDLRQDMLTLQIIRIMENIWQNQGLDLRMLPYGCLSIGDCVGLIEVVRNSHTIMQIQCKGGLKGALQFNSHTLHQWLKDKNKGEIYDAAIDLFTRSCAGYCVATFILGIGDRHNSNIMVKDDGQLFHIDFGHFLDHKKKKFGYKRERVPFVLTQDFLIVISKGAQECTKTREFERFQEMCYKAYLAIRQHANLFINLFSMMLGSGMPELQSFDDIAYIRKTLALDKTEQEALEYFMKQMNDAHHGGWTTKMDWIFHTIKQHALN
Sequence of Phosphatidylinositol 4,5-bisphosphate 3-kinase catalytic subunit beta isoform (P42338 whole entry, canonical isoform): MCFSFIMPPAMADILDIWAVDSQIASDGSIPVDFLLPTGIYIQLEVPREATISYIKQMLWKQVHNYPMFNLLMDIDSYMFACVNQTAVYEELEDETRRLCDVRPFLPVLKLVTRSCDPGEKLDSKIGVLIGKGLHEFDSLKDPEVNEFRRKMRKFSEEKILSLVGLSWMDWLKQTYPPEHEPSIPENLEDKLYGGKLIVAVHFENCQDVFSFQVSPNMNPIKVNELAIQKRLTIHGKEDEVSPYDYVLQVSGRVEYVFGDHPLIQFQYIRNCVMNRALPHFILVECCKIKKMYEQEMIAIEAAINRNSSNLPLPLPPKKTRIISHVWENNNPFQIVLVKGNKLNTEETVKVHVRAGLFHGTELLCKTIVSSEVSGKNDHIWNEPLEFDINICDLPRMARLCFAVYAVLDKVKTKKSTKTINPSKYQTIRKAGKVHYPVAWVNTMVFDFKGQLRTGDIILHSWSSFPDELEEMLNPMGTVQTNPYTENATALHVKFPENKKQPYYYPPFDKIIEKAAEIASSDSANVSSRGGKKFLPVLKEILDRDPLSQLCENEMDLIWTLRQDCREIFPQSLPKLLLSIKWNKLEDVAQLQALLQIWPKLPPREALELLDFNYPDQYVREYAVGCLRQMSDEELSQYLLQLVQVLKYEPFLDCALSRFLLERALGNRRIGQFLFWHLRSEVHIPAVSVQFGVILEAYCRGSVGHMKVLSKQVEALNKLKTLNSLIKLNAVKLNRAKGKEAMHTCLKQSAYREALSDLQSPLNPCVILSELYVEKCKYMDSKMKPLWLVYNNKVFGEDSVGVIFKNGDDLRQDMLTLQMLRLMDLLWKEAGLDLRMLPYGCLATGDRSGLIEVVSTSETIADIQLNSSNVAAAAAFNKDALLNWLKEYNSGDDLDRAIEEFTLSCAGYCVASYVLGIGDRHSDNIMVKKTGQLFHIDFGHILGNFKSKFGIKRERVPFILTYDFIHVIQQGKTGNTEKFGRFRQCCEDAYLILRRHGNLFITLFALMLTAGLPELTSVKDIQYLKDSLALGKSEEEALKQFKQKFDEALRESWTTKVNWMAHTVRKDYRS

As for `Cc1nc(Nc2cccc(N3CCCC3=O)c2)sc1-c1cc2c(c(S(C)(=O)=O)c1)C(=O)N([C@@H](C)C1CC1)C2`, the IC50 (in general, the concentration that inhibits the measured activity by half) in assay [1] is 0.9 nM.

Turning to `CC[C@H](C)N1Cc2cc(-c3sc(Nc4cccc(N5CCCOC5=O)n4)nc3C)cc(S(=O)(=O)NC)c2C1=O`, the values for the IC50 in assay [2], in assay [3] and in assay [4] were 459 nM, 2.2 nM and 80 nM, respectively.
